Test results published in patent US20040204341A1, “Nr2b receptor antagonists for the treatment or prevention of migraines” (priority 2001, published 2004).

SMILES: O=C(NCC1CCN(C(=O)OCc2ccccc2)CC1)c1ccc(O)cc1 [Example 1, 4-[(4-Hydroxy-benzoylamino)-methyl]-piperidine-1-carboxylic acid benzyl ester]
- melting point: 122 to 123 °C
